The target of assay [1] is MMP-9 (Homo sapiens, UniProt P14780). Briefly: K(obs) of individual phage substrates (set of 1369). It counts as biochemical. To be noted: MMP9, individual phage substrates, set of 1369 peptides.
Assay [2] addresses T1, MMP-2 (Homo sapiens, UniProt P08253).
T1 sequence (P08253 110-660): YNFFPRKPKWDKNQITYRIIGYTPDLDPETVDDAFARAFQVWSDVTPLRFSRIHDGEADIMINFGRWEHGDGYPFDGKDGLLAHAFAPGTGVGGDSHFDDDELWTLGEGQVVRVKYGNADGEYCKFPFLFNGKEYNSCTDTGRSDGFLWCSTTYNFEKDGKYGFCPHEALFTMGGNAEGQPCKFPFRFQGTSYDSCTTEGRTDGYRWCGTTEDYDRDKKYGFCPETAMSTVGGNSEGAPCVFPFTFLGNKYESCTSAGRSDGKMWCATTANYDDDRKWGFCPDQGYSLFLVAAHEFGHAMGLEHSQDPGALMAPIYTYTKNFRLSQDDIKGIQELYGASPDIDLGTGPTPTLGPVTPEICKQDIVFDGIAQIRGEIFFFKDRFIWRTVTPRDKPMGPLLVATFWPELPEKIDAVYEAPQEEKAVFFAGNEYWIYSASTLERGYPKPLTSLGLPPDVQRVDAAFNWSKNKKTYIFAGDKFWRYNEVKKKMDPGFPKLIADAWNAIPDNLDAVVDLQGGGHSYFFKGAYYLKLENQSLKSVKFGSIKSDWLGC
Described as above. It counts as biochemical. To be noted: MMP2.

The mark [3] stands for this setting: '-' marks the cleavage position (P1-P1').
[4] abbreviates: individual phage substrates, set of 1369 peptides, cleavage position marked by '-' in the sequence.
The mark [5] stands for this setting: dash in sequence marks cleavage position.
The mark [6] stands for this setting: individual phage substrate from the set of 1369 peptides, cleavage position marked by the dash in the sequence.

MMP-9, sequence (P14780 94-707): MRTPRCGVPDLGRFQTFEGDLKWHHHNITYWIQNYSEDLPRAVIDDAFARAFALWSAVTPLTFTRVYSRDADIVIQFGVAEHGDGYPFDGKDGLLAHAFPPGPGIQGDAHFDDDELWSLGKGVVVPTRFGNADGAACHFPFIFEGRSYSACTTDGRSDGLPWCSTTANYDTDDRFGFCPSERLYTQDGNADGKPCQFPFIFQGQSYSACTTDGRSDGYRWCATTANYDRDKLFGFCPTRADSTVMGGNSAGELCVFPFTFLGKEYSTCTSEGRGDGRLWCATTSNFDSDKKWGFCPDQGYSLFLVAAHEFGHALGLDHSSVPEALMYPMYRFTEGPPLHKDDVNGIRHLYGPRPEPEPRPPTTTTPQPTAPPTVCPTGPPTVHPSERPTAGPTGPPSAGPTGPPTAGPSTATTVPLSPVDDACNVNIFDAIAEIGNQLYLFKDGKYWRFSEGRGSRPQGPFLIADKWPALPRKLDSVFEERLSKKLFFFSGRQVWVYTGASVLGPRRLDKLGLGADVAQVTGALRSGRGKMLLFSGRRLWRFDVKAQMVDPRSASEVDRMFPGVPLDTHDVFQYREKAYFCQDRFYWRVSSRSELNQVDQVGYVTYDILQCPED

VIVAA-LTASG: the “Kobs” value in assay [1] (setting [3]) is 10866.7 M⁻¹ s⁻¹; in assay [2] (setting [4]), 12792.1 M⁻¹ s⁻¹.

On to GGSGM-LLMKQ, for which the “Kobs” value in assay [1] (setting [3]) and in assay [2] (setting [4]) was 0 M⁻¹ s⁻¹ throughout.

TRPQH-LTASG: the “Kobs” value stood at 7815.03 M⁻¹ s⁻¹ in assay [1] (setting [3]) and 10866.7 M⁻¹ s⁻¹ in assay [2] (setting [4]).

On to GCAQE-LTTAS, for which the entries for the “Kobs” value in assay [1] (setting [5]) and in assay [2] (setting [6]) were 27.918 M⁻¹ s⁻¹ and 113.394 M⁻¹ s⁻¹, respectively.

As for SRPRM-LTASG, the “Kobs” value came out at 8321.48 M⁻¹ s⁻¹ in assay [1] (setting [5]) and 7815.03 M⁻¹ s⁻¹ in assay [2] (setting [6]).

Consider HWPRF-LTASG, for which the “Kobs” value in assay [1] (setting [5]) and in assay [2] (setting [6]) was 10866.7 M⁻¹ s⁻¹ each time.

Turning to ERIWA-LTASG, the “Kobs” value in assay [1] (setting [5]) amounted to 3344.37 M⁻¹ s⁻¹; in assay [2] (setting [6]) it was 1465.65 M⁻¹ s⁻¹.

For SGPHS-MKLTA, the “Kobs” value amounted to 323.705 M⁻¹ s⁻¹ in assay [1] (setting [3]) and 0 M⁻¹ s⁻¹ in assay [2] (setting [4]).

For the substance RNLAS-LTASG, the “Kobs” value in assay [1] (setting [3]) came out at 142.481 M⁻¹ s⁻¹; in assay [2] (setting [4]), 7815.03 M⁻¹ s⁻¹.

In the case of GGSGA-LIAND, the “Kobs” value in assay [1] (setting [3]) worked out at 0 M⁻¹ s⁻¹; in assay [2] (setting [4]) it was 874.197 M⁻¹ s⁻¹.

On to SGPAA-LQSTA, for which the “Kobs” value worked out at 6688.74 M⁻¹ s⁻¹ in assay [1] (setting [5]) and 8321.48 M⁻¹ s⁻¹ in assay [2] (setting [6]).

As for GIAMN-ILTAS, the results for the “Kobs” value in assay [1] (setting [3]) and in assay [2] (setting [4]) were 990.764 M⁻¹ s⁻¹ and 0 M⁻¹ s⁻¹, respectively.

As to SGVRF-MRQTA, the “Kobs” value was found to be 1513.13 M⁻¹ s⁻¹ in assay [1] (setting [5]) and 231.616 M⁻¹ s⁻¹ in assay [2] (setting [6]).

With SGVFS-LKLTA, the figures for the “Kobs” value in assay [1] (setting [5]) and in assay [2] (setting [6]) were 551.253 M⁻¹ s⁻¹ and 654.784 M⁻¹ s⁻¹, respectively.

VFYQS-LTASG: the “Kobs” value in assay [1] (setting [3]) is 0 M⁻¹ s⁻¹; in assay [2] (setting [4]) it was 12792.1 M⁻¹ s⁻¹.

Consider HYPSS-LTASG, for which the “Kobs” value in assay [1] (setting [3]) and in assay [2] (setting [4]) was 12792.1 M⁻¹ s⁻¹ in each case.

Take PSPRA-ITASG: the “Kobs” value in assay [1] (setting [3]) and in assay [2] (setting [4]) was 12792.1 M⁻¹ s⁻¹ each time.

Consider VQLRS-LTASG, for which the “Kobs” value in assay [1] (setting [3]) amounted to 7015.91 M⁻¹ s⁻¹; in assay [2] (setting [4]), 12792.1 M⁻¹ s⁻¹.

As for GGSGS-LNQRL, the “Kobs” value amounted to 0 M⁻¹ s⁻¹ in assay [1] (setting [5]) and 585.336 M⁻¹ s⁻¹ in assay [2] (setting [6]).

In the case of NSHMA-LTASG, the “Kobs” value was determined as 619.843 M⁻¹ s⁻¹ in assay [1] (setting [5]) and 517.582 M⁻¹ s⁻¹ in assay [2] (setting [6]).

Take GGSGS-LSVWK: the “Kobs” value in assay [1] (setting [5]) and in assay [2] (setting [6]) was 0 M⁻¹ s⁻¹ throughout.

On to GSPVQ-LTTAS, for which the “Kobs” value in assay [1] (setting [3]) turned out to be 1327.88 M⁻¹ s⁻¹; in assay [2] (setting [4]), 1816.46 M⁻¹ s⁻¹.

On to GWVGH-LSTAS, for which the “Kobs” value in assay [1] (setting [5]) turned out to be 386.839 M⁻¹ s⁻¹; in assay [2] (setting [6]) it was 10866.7 M⁻¹ s⁻¹.

For the substance GGSGA-LQVPT, the “Kobs” value in assay [1] (setting [3]) came to 56.119 M⁻¹ s⁻¹; in assay [2] (setting [4]) it was 0 M⁻¹ s⁻¹.

Take HHPAA-LTASG: the “Kobs” value in assay [1] (setting [3]) and in assay [2] (setting [4]) was 12792.1 M⁻¹ s⁻¹ each time.

NTFLH-LTASG: the “Kobs” value in assay [1] (setting [5]) and in assay [2] (setting [6]) was 0 M⁻¹ s⁻¹ throughout.

For the substance GRALA-MQTAS, the “Kobs” value in assay [1] (setting [3]) was determined as 2218.08 M⁻¹ s⁻¹; in assay [2] (setting [4]), 3637.04 M⁻¹ s⁻¹.

Turning to GSGHR-LMMGT, the “Kobs” value in assay [1] (setting [5]) and in assay [2] (setting [6]) was 0 M⁻¹ s⁻¹ each time.

On to FMMGN-MTASG, for which the entries for the “Kobs” value in assay [1] (setting [3]) and in assay [2] (setting [4]) were 84.609 M⁻¹ s⁻¹ and 12792.1 M⁻¹ s⁻¹, respectively.

For RAGFQ-LTASG, the “Kobs” value in assay [1] (setting [5]) and in assay [2] (setting [6]) was 0 M⁻¹ s⁻¹ throughout.

With GKASN-LYTAS, the “Kobs” value was 1030.73 M⁻¹ s⁻¹ in assay [1] (setting [3]) and 3165.09 M⁻¹ s⁻¹ in assay [2] (setting [4]).

In the case of SGPIP-IRKTA, the “Kobs” value in assay [1] (setting [3]) and in assay [2] (setting [4]) was 12792.1 M⁻¹ s⁻¹ throughout.

As for KSPAY-LTASG, the “Kobs” value in assay [1] (setting [5]) and in assay [2] (setting [6]) was 10866.7 M⁻¹ s⁻¹ each time.

With GSGQG-LRMGT, the “Kobs” value in assay [1] (setting [5]) and in assay [2] (setting [6]) was 0 M⁻¹ s⁻¹ in each case.

In the case of RGPVF-LTASG, the “Kobs” value in assay [1] (setting [5]) and in assay [2] (setting [6]) was 10866.7 M⁻¹ s⁻¹ in each case.

As to SGLGE-LRGTA, the entries for the “Kobs” value in assay [1] (setting [3]) and in assay [2] (setting [4]) were 3850.82 M⁻¹ s⁻¹ and 12792.1 M⁻¹ s⁻¹, respectively.

As to SRVLP-LTASG, the “Kobs” value in assay [1] (setting [5]) is 1711.63 M⁻¹ s⁻¹; in assay [2] (setting [6]), 4613.14 M⁻¹ s⁻¹.

Regarding ESAQM-ITASG, the entries for the “Kobs” value in assay [1] (setting [3]) and in assay [2] (setting [4]) were 0 M⁻¹ s⁻¹ and 142.481 M⁻¹ s⁻¹, respectively.

On to SGPVS-LRMTA, for which the “Kobs” value in assay [1] (setting [5]) and in assay [2] (setting [6]) was 12792.1 M⁻¹ s⁻¹ each time.

SGPLS-ILNTA: the “Kobs” value in assay [1] (setting [3]) was 12792.1 M⁻¹ s⁻¹; in assay [2] (setting [4]), 8941.32 M⁻¹ s⁻¹.

As for SGVKF-LFNTA, the entries for the “Kobs” value in assay [1] (setting [5]) and in assay [2] (setting [6]) were 113.394 M⁻¹ s⁻¹ and 0 M⁻¹ s⁻¹, respectively.

For the substance SGYAH-MRVTA, the “Kobs” value in assay [1] (setting [3]) and in assay [2] (setting [4]) was 0 M⁻¹ s⁻¹ in each case.

Turning to GVPFM-ILTAS, the “Kobs” value turned out to be 4922.1 M⁻¹ s⁻¹ in assay [1] (setting [5]) and 484.315 M⁻¹ s⁻¹ in assay [2] (setting [6]).

Turning to SGALH-LRETA, the “Kobs” value in assay [1] (setting [3]) and in assay [2] (setting [4]) was 201.585 M⁻¹ s⁻¹ in each case.

As to RDLWK-LTASG, the results for the “Kobs” value in assay [1] (setting [3]) and in assay [2] (setting [4]) were 56.119 M⁻¹ s⁻¹ and 0 M⁻¹ s⁻¹, respectively.

On to VWGRA-LTASG, for which the “Kobs” value in assay [1] (setting [3]) is 8321.48 M⁻¹ s⁻¹; in assay [2] (setting [4]) it was 7386.83 M⁻¹ s⁻¹.

In the case of YATWS-MTASG, the “Kobs” value in assay [1] (setting [3]) turned out to be 27.918 M⁻¹ s⁻¹; in assay [2] (setting [4]) it was 0 M⁻¹ s⁻¹.

Regarding GGSGP-LRARL, the entries for the “Kobs” value in assay [1] (setting [5]) and in assay [2] (setting [6]) were 0 M⁻¹ s⁻¹ and 1816.46 M⁻¹ s⁻¹, respectively.

Turning to FMYSH-LTASG, the “Kobs” value came out at 0 M⁻¹ s⁻¹ in assay [1] (setting [5]) and 7815.03 M⁻¹ s⁻¹ in assay [2] (setting [6]).

As for YFARQ-LTASG, the “Kobs” value in assay [1] (setting [3]) was determined as 3438.54 M⁻¹ s⁻¹; in assay [2] (setting [4]), 2038.8 M⁻¹ s⁻¹.

With GFHRS-IRTAS, the “Kobs” value is 0 M⁻¹ s⁻¹ in assay [1] (setting [5]) and 292.668 M⁻¹ s⁻¹ in assay [2] (setting [6]).

Take GVPSW-LSTAS: the “Kobs” value in assay [1] (setting [3]) and in assay [2] (setting [4]) was 12792.1 M⁻¹ s⁻¹ each time.

Regarding GPAQD-LYTAS, the “Kobs” value in assay [1] (setting [5]) and in assay [2] (setting [6]) was 0 M⁻¹ s⁻¹ each time.

For the substance TMPYL-LTASG, the “Kobs” value in assay [1] (setting [5]) amounted to 7815.03 M⁻¹ s⁻¹; in assay [2] (setting [6]), 1870.4 M⁻¹ s⁻¹.

Consider TRMAL-LTASG, for which the “Kobs” value came to 84.609 M⁻¹ s⁻¹ in assay [1] (setting [5]) and 3438.54 M⁻¹ s⁻¹ in assay [2] (setting [6]).

As to YAPGS-MTASG, the “Kobs” value in assay [1] (setting [3]) was found to be 3741.87 M⁻¹ s⁻¹; in assay [2] (setting [4]), 5269.78 M⁻¹ s⁻¹.

For QRMDL-LTASG, the “Kobs” value in assay [1] (setting [3]) and in assay [2] (setting [4]) was 0 M⁻¹ s⁻¹ each time.

GSGFA-LVAKT: the entries for the “Kobs” value in assay [1] (setting [5]) and in assay [2] (setting [6]) were 323.705 M⁻¹ s⁻¹ and 0 M⁻¹ s⁻¹, respectively.

Consider ESPSF-LTASG, for which the “Kobs” value in assay [1] (setting [5]) is 3741.87 M⁻¹ s⁻¹; in assay [2] (setting [6]), 12792.1 M⁻¹ s⁻¹.

Consider SRVRN-LTASG, for which the “Kobs” value was determined as 4470.66 M⁻¹ s⁻¹ in assay [1] (setting [3]) and 8321.48 M⁻¹ s⁻¹ in assay [2] (setting [4]).

With SGAYS-LRVTA, the “Kobs” value was found to be 5090.5 M⁻¹ s⁻¹ in assay [1] (setting [3]) and 2157.02 M⁻¹ s⁻¹ in assay [2] (setting [4]).

Consider DILRH-LTASG, for which the “Kobs” value in assay [1] (setting [3]) was 2409.72 M⁻¹ s⁻¹; in assay [2] (setting [4]) it was 5889.62 M⁻¹ s⁻¹.

For GVLGH-LSTAS, the “Kobs” value in assay [1] (setting [3]) worked out at 0 M⁻¹ s⁻¹; in assay [2] (setting [4]) it was 3438.54 M⁻¹ s⁻¹.

Consider TALGY-LTASG, for which the “Kobs” value in assay [1] (setting [3]) was 323.705 M⁻¹ s⁻¹; in assay [2] (setting [4]), 12792.1 M⁻¹ s⁻¹.

The values are drawn from PMC7932537, “Quantitative profiling of protease specificity” (PLoS Computational Biology, 2021).
